Experimental findings from patent US11147272B2, “Pyridone compounds and agricultural and horticultural fungicides comprising the same as active ingredients” (MITSUI CHEMICALS AGRO, INC., priority 2017, dated 2021) are described below.

For assay [1], the system named is Magnaporthe grisea. As to the kind of experiment: whole plant or invertebrate. The format is in vivo. Conditions: 250 ppm drug solution sprayed on test plant.
Assay [2] concerns Alternaia brassicicola. As to the kind of experiment: Test Example C: Alternaria sooty spot on cabbage. Format: in vivo. Conditions: 250 ppm drug solution sprayed on test plant. From the text:
Seeds of a test plant (cabbage variety: Shikidori) were planted and cultivated until the cotyledons extended.
<Control Value> Control value=100{1−(n/3)}

Assay [3] concerns Puccinia recondita. As to the kind of experiment: Test Example E: Brown rust on wheat. Format: in vivo. Conditions: 250 ppm drug solution sprayed on test plant.
Assay [4] relates to Phytophthora infestans. The assay is described as follows: whole plant or invertebrate. Conditions: 250 ppm drug solution sprayed on test plant. The format is in vivo.
For assay [5], the system named is Botrytis cinerea. The assay is described as follows: Test Example B: Gray mold on tomato. Conditions: 250 ppm drug solution sprayed on test plant.
Protocol: Seeds of a test plant (tomato variety: Oogata Fukuju) were planted and cultivated until three to five first leaves (true leaves) appeared. In the test, the inventive compounds were dissolved into dimethyl sulfoxide-methanol mixture solution (volume ratio: 9/1), and the resultant solutions were diluted with well water to a concentration of 250 ppm to obtain the drug solutions. The drug solutions were sprayed to the test plant (2.5 ml/pot). After the drug solutions dried, a conidial suspension (4-8×10^5 conidia/ml) of Botrytis cinerea was inoculated to the plant by spraying. After the inoculation, the plant was kept in a mist chamber at room temperature of 20 to 23° C. for about 48 hours to promote the onset of disease. The degrees of disease development were investigated 2 to 3 days after the inoculation, and the effectiveness of the drug solutions was evaluated.
In Test Examples described above, the degrees of disease development were evaluated in increments of 0.05 from 0 (as no incidence of disease) to 3 (as the degree of disease development in an untreated plant group). Further, control values were calculated using the following equation based on the degree of disease development.
n=Degree of disease development in each treated group
In the table, H: more than 50% control value, L: 50% or less control value, and nt: not tested.
Assay [6] concerns Plasmopara viticola. As to the kind of experiment: Test Example G: Downy mildew on vine. The following applies: 250 ppm drug solution sprayed (2.5 ml/pot), grape Neomuscat, 7 to 10 days after inoculation.
Assay [7] deals with Colletotrichum orbiculare. The assay is described as follows: Test Example H: Anthracnose on cucumber. Conditions: 250 ppm drug solution sprayed (2.5 ml/pot), cucumber Sagami Hanjiro, 6 to 10 days after inoculation.
Assay [8] relates to Blumeria graminis f. sp. hordei. The assay is described as follows: Test Example D: Powdery mildew on barley. The following applies: 250 ppm drug solution sprayed on test plant.

With `CCc1cc(Cl)c(=O)n(CC)c1-c1c(F)cc(OC)cc1F` [compound 390], the “Test A control value” in assay [1] is reported as “H (more than 50% control value)”. Moreover, the “Test C control value” in assay [2] is reported as “H (more than 50% control value)”. Moreover, the “Test E control value” in assay [3] is “H (more than 50% control value)”. Also, in assay [4], the “Test F control value” is reported as “L (50% or less control value)”. Further, the “Test B control value” in assay [5] was “H (more than 50% control value)”. Further, the “Test G control value” in assay [6] is given as “H (more than 50% control value)”. Moreover, the “Test H control value” in assay [7] is recorded as “H (more than 50% control value)”. In assay [8], the “Test D control value” was “H (more than 50% control value)”.
Regarding `CCc1cc(Br)c(=O)n(CC)c1-c1c(F)cc(OC)cc1F` [compound 391], the “Test A control value” in assay [1] is reported as “H (more than 50% control value)”. For the same compound, in assay [2], the “Test C control value” is “H (more than 50% control value)”. Moreover, in assay [3], the “Test E control value” was “H (more than 50% control value)”. In addition, the “Test F control value” in assay [4] was “L (50% or less control value)”. Besides, the “Test B control value” in assay [5] is given as “H (more than 50% control value)”. Moreover, in assay [6], the “Test G control value” is “L (50% or less control value)”. For the same compound, in assay [7], the “Test H control value” is on record as “H (more than 50% control value)”. In addition, the “Test D control value” in assay [8] was “L (50% or less control value)”.
For the compound `CCCc1ccc(=O)n(C)c1-c1ccc(F)cc1Br` [compound 410], the “Test A control value” in assay [1] is given as “L (50% or less control value)”. Besides, the “Test C control value” in assay [2] is on record as “L (50% or less control value)”. The “Test E control value” in assay [3] is given as “H (more than 50% control value)”. The “Test F control value” in assay [4] is on record as “L (50% or less control value)”. Also, the “Test B control value” in assay [5] is “L (50% or less control value)”. Further, the “Test G control value” in assay [6] is recorded as “L (50% or less control value)”. The “Test H control value” in assay [7] is recorded as “L (50% or less control value)”. The “Test D control value” in assay [8] was “H (more than 50% control value)”.
For `CCCc1ccc(=O)n(CC)c1-c1ccc(OC)cc1C` [compound 411], the “Test A control value” in assay [1] was “L (50% or less control value)”. Also, the “Test C control value” in assay [2] was “L (50% or less control value)”. The “Test E control value” in assay [3] is “H (more than 50% control value)”. For the same compound, the “Test F control value” in assay [4] is given as “L (50% or less control value)”. In addition, in assay [5], the “Test B control value” was “H (more than 50% control value)”. Further, the “Test G control value” in assay [6] is reported as “L (50% or less control value)”. In addition, the “Test H control value” in assay [7] was “L (50% or less control value)”. Besides, in assay [8], the “Test D control value” was “H (more than 50% control value)”.
With `CCCc1cc(Cl)c(=O)n(CC)c1-c1ccc(OC)cc1C` [compound 412], in assay [1], the “Test A control value” is “H (more than 50% control value)”. Moreover, in assay [2], the “Test C control value” was “H (more than 50% control value)”. In addition, the “Test E control value” in assay [3] is “H (more than 50% control value)”. Besides, the “Test F control value” in assay [4] was “H (more than 50% control value)”. Further, the “Test B control value” in assay [5] is recorded as “H (more than 50% control value)”. The “Test G control value” in assay [6] is on record as “L (50% or less control value)”. Moreover, the “Test H control value” in assay [7] is recorded as “H (more than 50% control value)”. Also, the “Test D control value” in assay [8] is reported as “H (more than 50% control value)”.
For the compound `CCCc1cc(Br)c(=O)n(CC)c1-c1ccc(OC)cc1C` [compound 413], the “Test A control value” in assay [1] is recorded as “H (more than 50% control value)”. For the same compound, the “Test C control value” in assay [2] is “H (more than 50% control value)”. Also, the “Test E control value” in assay [3] is “H (more than 50% control value)”. For the same compound, the “Test F control value” in assay [4] is given as “L (50% or less control value)”. For the same compound, in assay [5], the “Test B control value” is “H (more than 50% control value)”. The “Test G control value” in assay [6] was “L (50% or less control value)”. Moreover, in assay [7], the “Test H control value” was “H (more than 50% control value)”. In addition, the “Test D control value” in assay [8] is “L (50% or less control value)”.
Regarding `CCCc1cc(Cl)c(=O)n(C)c1-c1ccc(F)cc1Br` [compound 414], in assay [1], the “Test A control value” is “H (more than 50% control value)”. Moreover, the “Test C control value” in assay [2] is reported as “H (more than 50% control value)”. For the same compound, the “Test E control value” in assay [3] was “H (more than 50% control value)”. Besides, the “Test F control value” in assay [4] was “L (50% or less control value)”. In addition, in assay [5], the “Test B control value” is “H (more than 50% control value)”. The “Test G control value” in assay [6] is recorded as “L (50% or less control value)”. For the same compound, the “Test H control value” in assay [7] is “H (more than 50% control value)”. The “Test D control value” in assay [8] is “H (more than 50% control value)”.
`CCCc1cc(Br)c(=O)n(C)c1-c1ccc(F)cc1Br` [compound 415]: the “Test A control value” in assay [1] is given as “H (more than 50% control value)”. Further, in assay [2], the “Test C control value” is listed as “H (more than 50% control value)”. Besides, in assay [3], the “Test E control value” is given as “H (more than 50% control value)”. In assay [4], the “Test F control value” is reported as “L (50% or less control value)”. The “Test B control value” in assay [5] is “H (more than 50% control value)”. In assay [6], the “Test G control value” is “L (50% or less control value)”. For the same compound, the “Test H control value” in assay [7] was “L (50% or less control value)”. In addition, the “Test D control value” in assay [8] is on record as “L (50% or less control value)”.
For the compound `CCCc1ccc(=O)n(C)c1-c1ccc(OC)cc1Br` [compound 416], the “Test A control value” in assay [1] is “L (50% or less control value)”. Moreover, the “Test C control value” in assay [2] is given as “L (50% or less control value)”. In addition, in assay [3], the “Test E control value” is on record as “H (more than 50% control value)”. The “Test F control value” in assay [4] is recorded as “L (50% or less control value)”. For the same compound, the “Test B control value” in assay [5] is recorded as “L (50% or less control value)”. Moreover, the “Test G control value” in assay [6] was “L (50% or less control value)”. Besides, in assay [7], the “Test H control value” is reported as “L (50% or less control value)”. The “Test D control value” in assay [8] is “L (50% or less control value)”.
Consider `CCCc1cc(Cl)c(=O)n(C)c1-c1ccc(OC)cc1Br` [compound 417], for which the “Test A control value” in assay [1] is “L (50% or less control value)”. For the same compound, in assay [2], the “Test C control value” is reported as “H (more than 50% control value)”. Moreover, the “Test E control value” in assay [3] is “H (more than 50% control value)”. In addition, the “Test F control value” in assay [4] is recorded as “L (50% or less control value)”. Further, the “Test B control value” in assay [5] is given as “H (more than 50% control value)”. For the same compound, in assay [6], the “Test G control value” was “L (50% or less control value)”. Further, in assay [7], the “Test H control value” was “H (more than 50% control value)”. For the same compound, the “Test D control value” in assay [8] is “L (50% or less control value)”.
With `CCCc1cc(Br)c(=O)n(C)c1-c1ccc(OC)cc1Br` [compound 418], the “Test A control value” in assay [1] is listed as “L (50% or less control value)”. The “Test C control value” in assay [2] is given as “H (more than 50% control value)”. Besides, the “Test E control value” in assay [3] is “H (more than 50% control value)”. Moreover, in assay [4], the “Test F control value” was “H (more than 50% control value)”. Also, the “Test B control value” in assay [5] is “H (more than 50% control value)”. The “Test G control value” in assay [6] is “L (50% or less control value)”. Moreover, in assay [7], the “Test H control value” is “H (more than 50% control value)”. Besides, the “Test D control value” in assay [8] is recorded as “L (50% or less control value)”.
Turning to `CCCc1ccc(=O)n(C)c1-c1ccc(F)cc1C` [compound 419], the “Test A control value” in assay [1] is “L (50% or less control value)”. In addition, the “Test C control value” in assay [2] is listed as “H (more than 50% control value)”. Further, in assay [3], the “Test E control value” was “L (50% or less control value)”. The “Test F control value” in assay [4] is given as “L (50% or less control value)”. Further, in assay [5], the “Test B control value” was “L (50% or less control value)”. In addition, the “Test G control value” in assay [6] is “L (50% or less control value)”. Also, the “Test H control value” in assay [7] is “H (more than 50% control value)”. The “Test D control value” in assay [8] is on record as “L (50% or less control value)”.
As to `CCCc1cc(Cl)c(=O)n(C)c1-c1ccc(F)cc1C` [compound 420], the “Test A control value” in assay [1] is reported as “L (50% or less control value)”. For the same compound, in assay [2], the “Test C control value” is “L (50% or less control value)”. In addition, the “Test E control value” in assay [3] is listed as “H (more than 50% control value)”. The “Test F control value” in assay [4] is reported as “L (50% or less control value)”. Further, in assay [5], the “Test B control value” is recorded as “H (more than 50% control value)”. The “Test G control value” in assay [6] is on record as “L (50% or less control value)”. Also, the “Test H control value” in assay [7] was “L (50% or less control value)”. For the same compound, in assay [8], the “Test D control value” is given as “H (more than 50% control value)”.
In the case of `CCCc1cc(Br)c(=O)n(C)c1-c1ccc(F)cc1C` [compound 421], in assay [1], the “Test A control value” is given as “L (50% or less control value)”. In addition, in assay [2], the “Test C control value” is recorded as “H (more than 50% control value)”. Also, in assay [3], the “Test E control value” is “H (more than 50% control value)”. Moreover, the “Test F control value” in assay [4] was “L (50% or less control value)”. In assay [5], the “Test B control value” was “H (more than 50% control value)”. The “Test G control value” in assay [6] is recorded as “L (50% or less control value)”. Also, the “Test H control value” in assay [7] is reported as “H (more than 50% control value)”. Further, the “Test D control value” in assay [8] is given as “H (more than 50% control value)”.
Regarding `CCCC1=C(c2c(F)cccc2F)N(CC)C(=O)CC1` [compound 422], the “Test A control value” in assay [1] was “L (50% or less control value)”. Moreover, the “Test C control value” in assay [2] is on record as “H (more than 50% control value)”. Further, the “Test E control value” in assay [3] is “L (50% or less control value)”. The “Test F control value” in assay [4] is on record as “L (50% or less control value)”. The “Test B control value” in assay [5] is “L (50% or less control value)”. Also, the “Test G control value” in assay [6] is recorded as “L (50% or less control value)”. Moreover, in assay [7], the “Test H control value” is on record as “L (50% or less control value)”. Further, the “Test D control value” in assay [8] is “H (more than 50% control value)”.
